Measured values reported in the supplement of paper PMC10307832.

Columns and labels:
Experiment in all cases: relative viability (nuclei count vs DMSO), 5 days (fraction); higher = more cells survive
Dovitinib = compound: CN1CCN(c2ccc3nc(-c4c(N)c5c(F)cccc5[nH]c4=O)[nH]c3c2)CC1 [Dovitinib]
Summary of the method: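 Nuclei counted with MetaXpress define viability as the ratio of treated to vehicle wells, given as a median across plates. The lung cancer cell lines were in 1536-well plates, pinned with five √10-spaced library-drug doses and imaged at 4× after 5 days and Hoechst staining. Plates passed with control CV below 25% and at least one doubling.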

Dovitinib + Trametinib = compound: CN1CCN(c2ccc3nc(-c4c(N)c5c(F)cccc5[nH]c4=O)[nH]c3c2)CC1 [Dovitinib] + CC(=O)Nc1cccc(-n2c(=O)n(C3CC3)c(=O)c3c(Nc4ccc(I)cc4F)n(C)c(=O)c(C)c32)c1 [Trametinib] (partner 0.02 µM)
Summary of the method: (§1)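 For relative viability, nuclei counts in treated wells were divided by those in vehicle wells. Lung cancer cell lines had been pin-tool dosed in 1536-well plates the day after seeding and cultured for 5 days, then fixed and stained in one step (final 0.05% Triton X-100, 1% formaldehyde, 1 ug/ml Hoechst) and imaged at 4×. Doses were one drug alone or a fixed anchor-drug dose plus five library-drug doses (not always all listed) in √10 steps, and values are duplicate-plate medians.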

Dovitinib + OSI-027 = compound: CN1CCN(c2ccc3nc(-c4c(N)c5c(F)cccc5[nH]c4=O)[nH]c3c2)CC1 [Dovitinib] + COc1cccc2cc(-c3nc([C@H]4CC[C@H](C(=O)O)CC4)n4ncnc(N)c34)[nH]c12 [OSI-027] (partner 0.5 µM)
Summary of the method: as §1

Dovitinib + Phenformin = compound: CN1CCN(c2ccc3nc(-c4c(N)c5c(F)cccc5[nH]c4=O)[nH]c3c2)CC1 [Dovitinib] + N=C(N)NC(=N)NCCc1ccccc1 [Phenformin] (partner 250 µM)
Summary of the method: as §1

| Cell Line | relative viability (Dovitinib; 0.02 µM) | relative viability (Dovitinib; 0.06325 µM) | relative viability (Dovitinib; 0.2 µM) | relative viability (Dovitinib; 0.6325 µM) | relative viability (Dovitinib; 2 µM) | relative viability (Dovitinib + Trametinib; first compound 0.02 µM) | relative viability (Dovitinib + Trametinib; first compound 0.06325 µM) | relative viability (Dovitinib + Trametinib; first compound 0.2 µM) | relative viability (Dovitinib + Trametinib; first compound 0.6325 µM) | relative viability (Dovitinib + Trametinib; first compound 2 µM) | relative viability (Dovitinib + OSI-027; first compound 0.02 µM) | relative viability (Dovitinib + OSI-027; first compound 0.06325 µM) | relative viability (Dovitinib + OSI-027; first compound 0.2 µM) | relative viability (Dovitinib + OSI-027; first compound 0.6325 µM) | relative viability (Dovitinib + OSI-027; first compound 2 µM) | relative viability (Dovitinib + Phenformin; first compound 0.02 µM) | relative viability (Dovitinib + Phenformin; first compound 0.06325 µM) | relative viability (Dovitinib + Phenformin; first compound 0.2 µM) | relative viability (Dovitinib + Phenformin; first compound 0.6325 µM) | relative viability (Dovitinib + Phenformin; first compound 2 µM) |
| --- | --- | --- | --- | --- | --- | --- | --- | --- | --- | --- | --- | --- | --- | --- | --- | --- | --- | --- | --- | --- |
| PC-14 | 1 | 1.01 | 1.03 | 1.03 | 1.04 | 0.743 | 0.795 | 0.822 | 0.696 | 0.86 | 0.827 | 0.804 | 1.02 | 0.751 | 0.933 | 0.657 | 0.563 | 0.553 | 0.542 | 0.765 |
| RERF-LC-KJ | 0.964 | 1.01 | 1.07 | 0.95 | 0.954 | 0.928 | 0.837 | 1.01 | 0.869 | 0.864 | 0.639 | 0.623 | 0.653 | 0.56 | 0.574 | 0.412 | 0.417 | 0.447 | 0.42 | 0.384 |
| SK-LU-1 | 0.991 | 1.09 | 1.08 | 1.08 | 1.11 | 0.429 | 0.516 | 0.491 | 0.551 | 0.52 | 0.3 | 0.386 | 0.359 | 0.388 | 0.316 | 0.515 | 0.525 | 0.594 | 0.595 | 0.528 |
| SK-MES-1 | 0.988 | 1.01 | 1.06 | 1.01 | 1.03 | 0.531 | 0.59 | 0.597 | 0.567 | 0.61 | 0.56 | 0.591 | 0.605 | 0.601 | 0.612 | 0.662 | 0.7 | 0.69 | 0.634 | 0.667 |
| SW 1573 | 1.05 | 0.992 | 1.01 | 0.947 | 1.07 | 0.579 | 0.617 | 0.563 | 0.551 | 0.592 | 0.715 | 0.641 | 0.676 | 0.455 | 0.725 | 0.355 | 0.413 | 0.473 | 0.282 | 0.359 |
| UMC-11 | 0.959 | 0.941 | 0.992 | 0.981 | 0.939 | 0.742 | 0.69 | 0.793 | 0.669 | 0.767 | 0.467 | 0.39 | 0.523 | 0.47 | 0.497 | 0.315 | 0.327 | 0.347 | 0.323 | 0.344 |
